Source: patent US4552843A, “Process for producing an acidic polycyclic ether antibiotic by cultivation of a novel strain of Streptomyces endus subspecies aureus” (Pfizer Inc., priority 1984, dated 1985)
Converted amounts (≈) assume the structure as drawn. Read-outs that look alike come from different tables or passages of the source.

How the values were obtained:
Assay in all cases: in vitro MIC test (Table I)
Assay type in all cases: cell-based
Peptococcus sp. = settings: strain 17B001; 24 hours
Description: (§1) In Table I, below, the results of in vitro MIC tests are summarized. For this test each organism is inoculated in a series of test tubes of CP-63,517 to determine the minimal concentration of the antibiotic in mcg/ml which inhibits the growth of the organism over a period of 24 hours (MIC).

Treponema hyodysenteriae = settings: for MIC: 24 hours
Description: as §1

Bordatella bronchi = settings: 24 h
Description: as §1

Fusobacterium plauti = settings: Flavonifractor plautii; strain 84G001; 24 hours
Description: as §1

Staphylococcus aureus = settings: 24 h
Description: as §1

Bacteroides vulgates = settings: 24 h
Description: as §1

P. haemolytica = settings: Mannheimia haemolytica, 24 h
Description: as §1

Erysip. rhusio = settings: strain 04A005; 24 hours
Description: as §1

Lactobacillus casei = settings: Lacticaseibacillus casei; strain 09B001; 24 hours
Description: as §1

L. catenaforme = settings: strain 09C001; 24 hours
Description: as §1

[1] = tested on: Staphylococcus epidermidis; settings: 24 h
Description: as §1

COC1CCC(OC2CC3(CC(O)C(C)C(C(C)C=C(C)C(=O)C(C)CC(C)C(=O)O)O3)OC2(C)C2CCC(C)C3(OC(C4OC(O)(CO)C(C)CC4C)CC3C)O2)OC1C (stereo not shown) [CP-63,517]
MIC (Peptococcus sp.): ≤ 0.1 mg/L | MIC (Treponema hyodysenteriae; Brachyspira hyodysenteriae, strain 94A001, read-out: MIC): 6.25 mg/L (≈ 7.21 µM) | activity against Treponema hyodysenteriae (Treponema hyodysenteriae; in vitro): possesses activity against Treponema hyodysenteriae | MIC (Treponema hyodysenteriae; strain 94A002): 6.25 mg/L (≈ 7.21 µM) | MIC (Bordatella bronchi; strain 73A006): 0.39 mg/L (≈ 0.45 µM) | MIC (Bordatella bronchi; strain 73A016): 6.25 mg/L (≈ 7.21 µM) | MIC (Fusobacterium plauti): 0.39 mg/L (≈ 0.45 µM) | MIC (Staphylococcus aureus; strain 01A005): 0.39 mg/L (≈ 0.45 µM) | MIC (Staphylococcus aureus; strain 01A052): 0.39 mg/L (≈ 0.45 µM) | MIC (Staphylococcus aureus; strain 01A106): 0.78 mg/L (≈ 0.9 µM) | MIC (Staphylococcus aureus; strain 01A110): 0.39 mg/L (≈ 0.45 µM) | MIC (Staphylococcus aureus; strain 01A539): 0.78 mg/L (≈ 0.9 µM) | MIC (Staphylococcus aureus; strain 01A543): 3.12 mg/L (≈ 3.6 µM) | MIC (Bacteroides vulgates): 25 mg/L (≈ 28.8 µM) | MIC (P. haemolytica; strain 59B018): 0.39 mg/L (≈ 0.45 µM) | MIC (P. haemolytica; strain 59B046): 0.39 mg/L (≈ 0.45 µM) | MIC (P. haemolytica; strain 59B061): 50 mg/L (≈ 57.7 µM) | MIC (Erysip. rhusio): 0.39 mg/L (≈ 0.45 µM) | MIC (Lactobacillus casei): 0.39 mg/L (≈ 0.45 µM) | MIC (L. catenaforme): 0.39 mg/L (≈ 0.45 µM) | MIC ([1]; strain 01B087): 0.78 mg/L (≈ 0.9 µM) | MIC ([1]; strain 01B111): 0.39 mg/L (≈ 0.45 µM)
